Values quoted from earlier work as cited in patent US11071776B2, “Nanoparticles for treatment of allergy” (priority 2012, dated 2021).

CCCCCCCCCCCCCCCCCCCCCCCCCC(=O)N[C@@H](CO[C@H]1O[C@H](CO)[C@H](O)[C@H](O)[C@H]1O)[C@H](O)[C@H](O)CCCCCCCCCCCCCC [αGalCer, alpha-galactosylceramide]
toxicity to humans: not toxic to humans
